In article PMC11021962, “Coupling and regulation mechanisms of the flavin-dependent halogenase PyrH observed by infrared difference spectroscopy” (The Journal of Biological Chemistry, 2024):

Key:
PyrH [1] = biological target: T1, PyrH (Streptomyces rugosporus, UniProt A4D0H5); assay: light-induced FTIR difference spectroscopy; details: 3 mM compound, FAD-bound enzyme, 20 mM chloride, 35 mM DTT, pH 8.3, 10 °C, anaerobic, 450 nm photoreduction; substrate-binding site, allosterically coupled to FAD site
T1 sequence (A4D0H5 whole entry): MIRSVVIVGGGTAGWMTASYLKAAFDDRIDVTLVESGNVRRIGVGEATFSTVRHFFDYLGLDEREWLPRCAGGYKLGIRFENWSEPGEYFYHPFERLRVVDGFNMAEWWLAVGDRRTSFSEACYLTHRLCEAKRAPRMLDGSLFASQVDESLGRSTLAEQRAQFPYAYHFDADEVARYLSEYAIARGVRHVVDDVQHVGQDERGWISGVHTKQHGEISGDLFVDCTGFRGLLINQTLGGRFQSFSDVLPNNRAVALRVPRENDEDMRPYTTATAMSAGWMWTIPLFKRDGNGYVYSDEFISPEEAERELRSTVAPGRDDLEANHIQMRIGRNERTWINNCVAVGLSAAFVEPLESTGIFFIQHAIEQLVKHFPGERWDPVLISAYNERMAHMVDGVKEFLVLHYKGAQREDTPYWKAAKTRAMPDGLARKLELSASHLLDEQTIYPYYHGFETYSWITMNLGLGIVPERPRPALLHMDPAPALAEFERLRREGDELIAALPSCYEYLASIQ

PyrH [2] = biological target: T1, PyrH; assay: UV-vis spectroscopy after reconstitution and washing; light-induced FTIR difference spectroscopy; format: binding; details: pH 8.3, 20 mM NaCl, 60 mM potassium phosphate

Row | Structure (SMILES) | light-induced FTIR difference spectroscopy (PyrH [1]) | UV-vis spectroscopy after reconstitution and washing; light-induced FTIR differe (PyrH [2])
1 | N[C@@H](Cc1c[nH]c2ccc(Cl)cc12)C(=O)O [5-chlorotryptophan] | The binding of 5-chlorotryptophan also leads to a reduction of secondary structure changes | 
2 | N[C@@H](Cc1c[nH]c2ccccc12)C(=O)O [tryptophan] | Tryptophan binding causes a change in the environment of FAD | 
3 | Cc1cc2nc3c(=O)[nH]c(=O)nc-3n(C[C@H](O)[C@H](O)[C@H](O)COP(=O)(O)OP(=O)(O)OC[C@H]3O[C@@H](n4cnc5c(N)ncnc54)[C@H](O)[C@@H]3O)c2cc1C [FAD] |  | FAD remained bound to PyrH in all three samples after extensive washing steps
